Test results from patent publication US7790727B2, “Benzenesulfonanilide compounds suitable for treating disorders that respond to modulation of the serotonin 5-HT6 receptor” (Abbott GmbH & Co. KG, priority 2007, dated 2010).
Counter-ions that a name gives are not always drawn. Like-named read-outs stand apart in the source and are kept apart here. Blank lines part the entries; values can stand above or below the compound they belong to.

Assays:
h-5-HT6 receptor = molecular target: T1, h-5-HT6 receptor (Homo sapiens, UniProt P50406); assay: 5-HT6 receptor binding assay (displacement of [3H]-LSD)
T1 construct: expressed in transfected cells
T1 sequence (P50406 whole entry): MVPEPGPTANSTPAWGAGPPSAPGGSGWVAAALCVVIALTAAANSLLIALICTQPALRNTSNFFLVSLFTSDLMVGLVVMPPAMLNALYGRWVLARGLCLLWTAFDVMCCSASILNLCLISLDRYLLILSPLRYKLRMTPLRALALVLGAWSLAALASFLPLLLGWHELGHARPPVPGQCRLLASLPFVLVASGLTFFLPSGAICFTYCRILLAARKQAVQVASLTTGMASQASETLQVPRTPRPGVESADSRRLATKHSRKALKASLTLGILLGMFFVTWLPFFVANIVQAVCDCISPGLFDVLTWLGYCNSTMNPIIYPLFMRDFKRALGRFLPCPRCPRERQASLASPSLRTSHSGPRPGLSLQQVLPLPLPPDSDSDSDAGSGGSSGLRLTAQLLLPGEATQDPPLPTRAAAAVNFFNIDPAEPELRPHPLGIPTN
Procedure: Displacement of radioligands binding to the following cloned human receptors
(§1) 1. Preparation of Membranes by Ultrasonic Treatment and Differential Centrifugation
Cells from stable clonal cell lines expressing the corresponding receptor (5-HT6, α1-adrenergic, dopamine D2 or histamine H1 receptors) were washed with PBS (w/o Ca^++, Mg^++) and harvested in PBS with 0.02% EDTA. The cells were collected by centrifugation at 500 g for 10 min. at 4° C., washed with PBS and centrifuged (500 g, 10 min. 4° C.). The pellets were stored at −80° C. until use. F or membrane preparation, the thawed cell pellet was resuspended in ice-cold sucrose buffer (0.25 M sucrose, 10 mM Hepes (pH 7.4), 1 mM Phenylmethylsulfonyl fluoride (PMSF) in DMSO, 5 μg/ml Pepstatin-A, 3 mM EDTA, 0.025% Bacitracin) and homogenized with a Branson Sonifier W-250 (Settings: Timer 4; Output Control 3; Duty Cycle constant; 2 to 3 cycles). Cell disruption was checked with the aid of a microscope. Remaining unbroken cells were pelleted at 1.000 g for 10 min. at 4° C. The sucrose buffer supernatant was then centrifuged at 60.000 g for 1 h at 4° C. (Beckman Ultrazentrifuge XL 80). The pellet was resuspended in 30 ml ice-cold Tris buffer (20 mM TRIS (pH 7.4), 5 μg/ml Pepstatin A, 0.1 mM PMSF, 3 mM EDTA) by pipetting through a 10 ml serological pipet and centrifuged for 1 h at 4° C. at 60.000 g. A final resuspension was performed in a small volume of ice-cold Tris buffer (see above) by pressing through a serological pipet followed by ultrasonic treatment with a Branson Sonifier W-250 (Settings: Timer 1; Output Control 3; Duty Cycle constant; 1 cycle). Protein concentration was determined (BCA-Kit; Pierce) and aliquots stored at −80° C. or in liquid nitrogen for long-term storage.
(§2) 2. Receptor Binding Experiments
All receptor binding experiments were carried out in the corresponding assay buffer in a total volume of 200 μl in the presence of various concentrations of test compound (10^−5 M to 10^−9 M, tenfold serial dilution, duplicate determinations). The assays were terminated by filtration on polyethylenimine (PEI 0.1% or 0.3%) presoaked Packard Unifilter Plates (GF/C or GF/B) with a Tomtec Machill U 96 well-plate harvester. After the plates had been dried for 2 h at 55° C. in a drying chamber scin tillation cocktail (BetaPlate Scint; PerkinElmer) was added. Radioactivity was measured in a Microbeta Trilux two hours after the addition of the scintillation mixture. Data derived from liquid scintillation counting were analysed by iterative non-linear regression analysis with the use of the Statistical Analysis System (SAS): a program similar to “LIGAND” as described by Munson and Rodbard (Analytical Biochemistry 107, 220-239 (1980).
a) 5-HT6 Receptor Binding Assay
HEK293 cells stably expressing the h-5-HT6 receptor (NCBI Reference Sequence XM 001435) were cultured in RPMI1640 medium supplemented with 25 mM HEPES, 10% fetal calf serum and 1-2 mM glutamine. The membrane preparation was performed as described in section 1. […] Non-specific binding was defined with 1 μM methiothepin. The binding reaction was carried out for 3.5 h at room temperature. During the incubation, the plates were shaken on a plate shaker at 100 rpm and terminated by filtration on Packard Unifilter GF/C (0.1% PEI) plates, followed by 2 wash cycles with ice-cold 50 mM Tris-HCl, 5 mM CaCl2.
Data derived from liquid scintillation counting were analyzed by iterative non-linear regression analysis with the use of the Statistical Analysis System (SAS): a program similar to “LIGAND” as described by Munson and Rodbard (Anal. Biochem. 1980, 107, 220-239). Fitting was performed according to formulae described by Feldman (Anal. Biochem. 1972, 48, 317-338). IC50, nH and Ki values were expressed as geometrical mean.

dopamine D2 receptor = molecular target: T2, dopamine D2 receptor (Homo sapiens, UniProt P14416); assay: Dopamine D2 receptor binding assay (displacement of [125I]-iodospiperone); details: dopamine D2 receptor membranes, HEK293; read-out: KD of radioligand (saturation binding experiments)
T2 construct: expressed in transfected cells
T2 sequence (P14416 whole entry): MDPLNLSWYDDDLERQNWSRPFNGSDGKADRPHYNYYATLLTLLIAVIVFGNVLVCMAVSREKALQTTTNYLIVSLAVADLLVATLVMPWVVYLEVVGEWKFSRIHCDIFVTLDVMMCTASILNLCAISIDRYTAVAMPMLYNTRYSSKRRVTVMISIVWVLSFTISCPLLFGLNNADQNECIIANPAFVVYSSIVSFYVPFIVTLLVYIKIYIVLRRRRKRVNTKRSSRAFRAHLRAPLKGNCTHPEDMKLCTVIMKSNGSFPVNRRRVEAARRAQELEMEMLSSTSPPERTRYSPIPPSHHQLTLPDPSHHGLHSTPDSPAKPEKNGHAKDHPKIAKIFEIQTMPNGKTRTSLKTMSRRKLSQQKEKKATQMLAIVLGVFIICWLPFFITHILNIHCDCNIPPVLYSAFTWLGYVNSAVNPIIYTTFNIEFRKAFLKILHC
Procedure: as §1
The pellets were stored at −80° C. until use. […] (Beckman Ultrazentrifuge XL 80).
as §2
a) Dopamine D2 Receptor Binding Assay
Non-specific binding was defined with 1 μM haloperidol.

Compound: O=S(=O)(Nc1cccc(N2CCNCC2)c1)c1ccccc1OC(F)F [Example 30, 2-Difluoromethoxy-N-(3-piperazin-1-yl-phenyl)-benzenesulfonamide Trifluoroacetate]
Ki (h-5-HT6 receptor): < 10 nM

Ki (h-5-HT6 receptor; membranes of HEK293 cells expressing h-5-HT6 receptor, 1 nM [3H]-LSD, read-out: Ki(5HT6)): < 50 nM
Compound: COc1ccc(S(=O)(=O)Nc2cccc(N3CCNCC3)c2)cc1OC(F)F [Example 31, 3-Difluoromethoxy-4-methoxy-N-(3-piperazin-1-yl-phenyl)-benzenesulfonamide Trifluoroacetate]

Kd (dopamine D2 receptor): 0.22 nM
Compound: iodospiperone [[^125I]-iodospiperone]
